Measurements: patent US10266482B2, “Long-term memory inducing agent” (NATIONAL UNIVERSITY CORPORATION TOKYO MEDICAL AND DENTAL …, priority 2017, dated 2019)

Test system: young mice
Test: Object recognition test for young mice, AMK application to the scalp
Type: in vivo, ICR mice
Settings: 1 μl of 0.4 mg/μl in dimethyl sulfoxide applied to scalp 30 minutes before one 3-minute acquisition trial
Experimental: Two-month-old male ICR mice (young mice) were used. The rearing room was kept at 22° C. at cycles of 12 hours of light period/12 hours of dark period, and feed and drinking water were given freely. All of the experiments were conducted during the latter 6 hours of the light period.
N(1)-acetyl-5-methoxykynuramine (AMK) was used as a drug. AMK was diluted with dimethyl sulfoxide to result a concentration of 0.4 mg/μl. One μl of the diluent was applied to each individual.
In order to examine the effect of AMK application to the skin, the scalps of the mice were depilated the day before the acquisition trial, AMK or dimethyl sulfoxide as a solvent was applied to 1 cm^2 of the scalp under inhalation anesthesia with isoflurane (Pfizer) 30 minutes before the acquisition trial, left for 5 minute to dry, and then the applied surface was protected with patchProtect (SmartPractice).
Test was conducted in the same manner as “5.3 Object recognition test” in Example 5 except that searching time was 3 minutes in the acquisition trial.
Processing was conducted in the same manner as “5.4 Statistical processing” in Example 5.

COc1ccc(N)c(C(=O)CCNC(C)=O)c1 [Compound 1, N-[3-(2-amino-5-methoxyphenyl)-3-oxopropyl]-acetamide]
long-term memory formation (DI value, test trial 24 hours later): a long-term memory was formed
